Laboratory results reported in patent US20260365692A1, “COMPOSITIONS COMPRISING PROTEINS DISSOLVED IN FLUORINATED SOLVENTS, AND METHODS OF MAKING AND USING THE SAME” (priority 2022, published 2026).

What was measured:
[1] = tested on: E. coli; assay: Bacterial contamination of BSA samples with E. coli; conditions: 37 °C overnight
Procedure: FIG. 24A: Diagram of contamination experiment. FIG. 24B: Samples in PBS (top) and PFOc (bottom) after contamination with E. coli.
To model bacterial contamination of samples a hypodermic needle was streaked across a lawn of plated E. coli (FIG. 24A). The contaminated needle was then dipped into PBS or PFOc (containing PFNA) samples with dispersed BSA protein to contaminate, and samples incubated at 37 °C overnight to allow for bacterial growth. An aliquot of the solution was then streaked onto LB-agar plates and incubated at 37 C overnight to allow for bacterial colony formation.

[2] = Temperature-dependent circular dichroism of proteins in PFOc or PBS (Example 4); format: physicochemical
Procedure: FIGS. 39A-39B depict temperature-dependent CD spectra of the indicated test protein solubilized in PFOc using the PD-7 dispersant, or PBS as a control.
FIG. 40 depicts the change in minimum CD ellipticity over the 40 °C-85 °C temperature interval for the indicated protein dissolved in either PBS or PFOc.
To determine structural integrity of proteins in aqueous and fluorinated environments at elevated temperatures, circular dichroism (CD) was used to probe secondary structure. Proteins were either diluted in PBS (aqueous) or dispersed in PFOc at the same designated concentrations according to protocol described above. For aqueous samples, dissolved proteins were heated between 40 °C to 90 °C, and their corresponding CD spectra at each temperature was measured. For PFOc samples, each of the PFOc dispersed proteins were subjected to heat treatment at 40, 55, 70, and 85 °C for 15 minutes. After that, dispersed proteins were eluted into PBS before having their CD spectra taken. Data is shown by representative ellipticity at each temperature depicted by distinct colors.

[3] = tested on: E. coli, P. aeruginosa, K. pneumoniae, Methicillin-resistant S. aureus (MRSA), C. albicans; assay: Contamination of BSA formulations by bacterial and fungal pathogens
Excerpt: FIG. 53 depicts representative photographs of agar plates streaked with BSA formulations in PBS (top panel) or PFOc (lower panel) contaminated with the indicated pathogen. MRSA=methicillin resistant Staphylococcus aureus.
Evaluating PFOc Protein Formulation Resilience Against Contaminants Aqueous protein formulations can be compromised by contaminating pathogens, or the biologic inactivated by exposure to environmental disinfectants and acids. In the context of bacterial and fungal contamination, it was hypothesized that removal of the water solvent required for microorganismal survival should make the PFOc protein formulations intrinsically sterile. A hypodermic needle was streaked across a lawn of the human bacterial pathogens E. coli, P. aeruginosa, K. pneumoniae or Methicillin-resistant S. aureus (MRSA), as well as the human fungal pathogen C. albicans prepared on agar. The contaminated needle was then submerged into BSA protein formulations prepared in either PBS or PFOc solvents. Contaminated liquid formulations were incubated at 37 °C overnight and replated onto agar plates to assess growth.

[4] = tested on: seven model proteins (Hb, GFP, BSA, β-Gal, IgG, TFN, URE); assay: Fluorochemical-mediated dispersion of test proteins into perfluorohexane; format: physicochemical; conditions: into PFH, 1000:1 molar ratio with protein
Excerpt: Only the rabbit IgG Fc fragment is shown.
For PFAS amphiphiles, the combination of polar head group and fluorophilic tail additionally leads to their preferential assembly at water-fluorous interfaces. Based on these unique properties, it was speculated that PFAS compounds may noncovalently associate with proteins to mediate their phase separation into fluorous media. To test this, a screening assay was developed to qualitatively investigate the binding affinity of a library of perfluorinated chemicals with seven model proteins, which include human hemoglobin (Hb), green fluorescent protein (GFP), bovine serum albumin (BSA), (β-Galactosidase (β-Gal), rabbit serum immunoglobulin (IgG), bovine apo-transferrin (TFN), and urease (URE). This group of model proteins captures an array of physicochemical properties ranging in molecular weight, solvent accessible surface area (SASA), isoelectric point (pI), and hydrodynamic radii. A corresponding perfluorinated small molecule test set was selected to contain a plurality of functional groups, linear perfluorocarbon chain lengths, and cyclic or aromatic geometries (FIGS. 1-7). Selection of these compounds was based on their potential to form noncovalent bonds (i.e., hydrogen or ionic) with the solvent exposed protein surfaces. […] These three linear PFAS chemicals are currently regulated by the US Environmental Protection Agency based on their reproductive, immune, and hepatic toxicity (References: 44-46). In sum, the structural and biochemical diversity represented in the protein and fluorochemical libraries was rationally selected to allow structure-function-performance relationships to be ascertained from binding studies.

[5] = tested on: HepG2 cells; assay: HepG2 MTT viability assay (Example 2); format: cell-based, human; conditions: HepG2, 37 °C overnight
Procedure: FIG. 28 depicts a viability assay for HepG2 cells treated with two first generation compounds and two second generation compounds.
Next, viability assays were performed by seeding HepG2 (liver cancer cell line) onto 96 well plates and allowing the cells to adhere overnight. DMEM cell culture media containing various concentrations of each FTag compound were then added, and the plates were incubated at 37 °C overnight. The supernatant was then removed and MTT viability dyes were added to each well and allowed to convert for 2 hours. Dye absorbance for each condition was then compared to positive (20% DMSO) and negative (blank media) controls to calculate % viability (FIG. 28).

[6] = tested on: β-Galactosidase (β-Gal); conditions: into PFH, 1000:1 molar ratio with protein
Excerpt: FIGS. 8A-8G depict fluorochemical-mediated dispersion of test proteins hemoglobin (Hb, FIG. 8A), green fluorescent protein (GFP, FIG. 8B), bovine serum albumin (BSA, FIG. 8C), β-Galactosidase (β-Gal, FIG. 8D), rabbit serum immunoglobulin G (IgG, FIG. 8E), bovine apo-transferrin (TFN, FIG. 8F), and urease (URE, FIG. 8G) into perfluorohexane. […] The compound ‘0’ indicates a control sample absent of an additive. The crystal structure of each protein candidate tested is shown in the inset of each of FIGS. 8A-8G. Only the rabbit IgG Fc fragment is shown.
To investigate PFAS-protein binding avidity, an assay was developed to measure the concentration of protein dispersed into perfluorohexane (PFH) in the presence of each fluorochemical compound (1000:1 molar ratio with protein). Protein dispersion into PFH served as a quantitative measure of PFAS-protein avidity, where the amount of dispersed protein was normalized to its initial concentration to evaluate binding interactions.

[7] = Thermal stability of proteins in PFNA/PFOc (bioactivity after heating); format: physicochemical; conditions: PFNA/PFOc mixture compared to aqueous solution, 30 min heating
Procedure: FIGS. 16A-16C depict that the thermal stability of β-gal, GFP, and Trypsin is enhanced when the proteins are dissolved in a PFNA/PFOc mixture, compared to aqueous solutions of the proteins.
PFNA enhanced thermal stability in PFOc Differential scanning calorimetry (DSC) measurements were performed on 5 test proteins dissolved in either PBS (Aq.) or Perfluorooctane (PFOc). PFNA dispersant was added only for the PFOc conditions. DSC was performed at 2 °C/min ramp from 40 °C-100 °C. Melting temperature (Tm) was determined based on positive inflection of heat capacity curve, indicating protein unfolding (FIG. 15). Change in melting temperature (ATm (°C)) represented the difference in Tm between aqueous (Aq.) and PFOc data. Tm for GFP in PFOc could not be achieved at the maximum temperature of 100 °C for the DSC experiments. Each protein was dissolved in PBS (Aq.) or PFNA/PFOc mixture. Dissolved proteins were heated to 75 °C (β-gal), 90 °C (GFP) or 80 °C (Trypsin); treatment temperatures were determined based on aqueous melting temperatures for each protein. Positive controls were maintained at room temperature (25 °C). […] Bioactivity was evaluated then via fluorescence measurements for GFP, or using colorimetric substrate conversion assays (ONPG for β-gal, BAEE for Trypsin). […]

[8] = Protein activity after elevated temperature exposure (Example 4); format: physicochemical; conditions: 90 °C for 30 minutes
Procedure: A group of enzyme proteins, β-Gal and Trypsin was chosen for this study. β-Gal and Trypsin were diluted in PBS or dispersed in PFOc at 1 μM and 10 μM, respectively. Next, a subset of samples was subjected to elevated temperature condition (90 °C) well beyond their native denaturation temperature for 30 minutes. After that, samples were allowed to cool down to room temperature before retrieval. For PFOc samples, proteins were extracted into PBS before performing the ensuing assays. To determine the enzymatic activity, an equal volume of protein samples was added to their substrates dissolved in PBS (4 mg/mL ONPG for β-Gal or 1 mg/mL BAEE for Trypsin). After incubation, ONPG and BAEE substrate conversions were measured by taking absorbance using a microplate reader at 420 nm or 400 nm, respectively. In case of intrinsic fluorescence, GFP was similarly prepared, and heat treated. After GFP samples were retrieved, fluorescent intensity was taken at λex=490 nm, λem=520 nm. The change in protein activity was presented by normalizing to spectrometric readings of each protein dissolved in PBS without being subjected to heat (room temperature). […] This supports the assertion that the fluorous coating and solvent environments, together, serve to constrain the conformational flexibility of the dispersed protein and, as a result, increase its melting temperature.

[9] = dispersed in PFOc using PD-7, heated up to 85 °C

## BSA: bovine serum albumin (BSA)
[1]; BSA in PBS
  E. coli colony growth after contamination: Visible E. coli colony growth
[1]; BSA in PFOc (containing PFNA)
  sterility after contamination: remained sterile
[2]; [9]
  change in secondary structure: minimal changes in secondary structure
[3]; BSA in PBS
  contamination: readily contaminated by all five pathogens
[3]; BSA in PFOc
  sterility after contamination: remained sterile

## O=C(O)C(F)(F)C(F)(F)C(F)(F)C(F)(F)C(F)(F)C(F)(F)C(F)(F)C(F)(F)C(F)(F)F [Compound 8, perfluorodecanoic acid]
[4]
  capacity to disperse proteins into PFH / association with proteins (in words): significantly compromised its association with most proteins

## O=C(O)C(F)(F)C(F)(F)C(F)(F)C(F)(F)C(F)(F)C(F)(F)C(F)(F)F [Compound 6, perfluorooctanoic acid]
[4]
  capacity to disperse proteins into PFH / association with proteins (in words): significantly compromised its association with most proteins

## 2,2-(1,1,1,2,2,3,3,4,4,5,5,6,6-tridecafluorooctane)-2-cyanoacetic acid [Compound 21]
[5]
  IC50: 610 µM

## O=C(O)C1(F)C(F)(F)C(F)(F)C(F)(F)C(F)(F)C1(F)F [Compound 13, perfluorocyclohexanecarboxylic acid]
[4]
  capacity to disperse proteins into PFH / association with proteins (in words): capacity to disperse many of the protein candidates into PFH

## O=C(O)C(F)(F)C(F)(F)C(F)(F)C(F)(F)C(F)(F)C(F)(F)C(F)(F)C(F)(F)C(F)(F)C(F)(F)C(F)(F)C(F)(F)C(F)(F)F [Compound 11, perfluorotetradecanoic acid]
[6]
  dispersion efficiency of β-Gal (in words): sharp drop off in dispersion efficiency

## O=S(=O)(O)C(F)(F)C(F)(F)C(F)(F)C(F)(F)C(F)(F)C(F)(F)C(F)(F)C(F)(F)F [Compound 17, perfluorooctanesulfonic acid]
[4]
  capacity to disperse proteins into PFH / association with proteins (in words): capacity to disperse many of the protein candidates into PFH

## NCC(F)(F)C(F)(F)C(F)(F)C(F)(F)C(F)(F)C(F)(F)C(F)(F)C(F)(F)F [Compound 20, 1H,1H-perfluorononylamine]
[4]
  capacity to disperse proteins into PFH / association with proteins (in words): capacity to disperse many of the protein candidates into PFH

## O=C(O)C(F)(F)C(F)(F)C(F)(F)C(F)(F)C(F)(F)C(F)(F)C(F)(F)C(F)(F)C(F)(F)C(F)(F)C(F)(F)F [Compound 10, perfluorododecanoic acid]
[6]
  dispersion efficiency of β-Gal (in words): stepwise increase in dispersion efficiency

B1: Trypsin: bovine trypsin (protein, UniProt P00760 24-246, looked up)
Serine protease 1: IVGGYTCGANTVPYQVSLNSGYHFCGGSLINSQWVVSAAHCYKSGIQVRLGEDNINVVEGNEQFISASKSIVHPSYNSNTLNNDIMLIKLKSAASLNSRVASISLPTSCASAGTQCLISGWGNTKSSGTSYPDVLKCLKAPILSDSSCKSAYPGQITSNMFCAGYLEGGKDSCQGDSGGPVVCSGKLQGIVSWGSGCAQKNKPGVYTKVCNYVSWIKQTIASN
[7]
  thermal stability: enhanced
[2]; [9]
  change in secondary structure: minimal changes in secondary structure
[2]; saline (PBS) control, 40-85 °C
  change in secondary structure: minimal change in structure
[8]; PFOc dispersed
  change in activity after heating: no statistically significant change in activity
[8]; saline
  loss of bioactivity after heating: > 90%
